Literature values in patent US9820994B2, “Cerclage pessary containing progesterone of prolonged, sustained, and continuous release useful for prevention of preterm birth” (Laboratorios Andromaco S.A., priority 2014, dated 2017).

Test system: women at risk of preterm birth (short cervix / history of preterm birth)

In the case of `CC(=O)[C@H]1CC[C@H]2[C@@H]3CCC4=CC(=O)CC[C@]4(C)[C@H]3CC[C@]12C` [progesterone], the “Reduction in rate of spontaneous preterm birth before 33-34 weeks” value (250 mg IM weekly, 200 mg daily vaginal suppositories, 90 mg vaginal gel) is given as “approximately 40%”, the “Rate of births before 34 weeks” value (vaginal progesterone group, singleton, previous preterm birth, cervical length less than 25 mm (Alfirevic et al., 2013)) is given as roughly 30% and the “Reduction of the rate of spontaneous preterm birth before 33-34 weeks” value (vaginally administered, patients with short cervix) is given as 40-45%.
